ChEMBL document CHEMBL6134890, “Terminally Symmetric β-Turn Peptides for Multidrug-Resistant Bacterial Infections” (J Med Chem, 2025)
Converted amounts (≈) assume the structure as drawn. The source made the active and inactive calls. No cut-off for these calls is given here.

What was measured:
Staphylococcus aureus [1] = assay: Antimicrobial activity against Staphylococcus aureus ATCC 25923 assessed as reduction in bacterial growth by broth dilution method; format: functional
Staphylococcus aureus [2] = assay: Antimicrobial activity against multi-drug resistant Staphylococcus aureus assessed as reduction in bacterial growth by broth dilution method; format: functional
[3] = tested on: Staphylococcus epidermidis; assay: Antimicrobial activity against multi-drug resistant Staphylococcus epidermidis assessed as reduction in bacterial growth by broth dilution method; format: functional
Enterococcus faecalis = assay: Antimicrobial activity against multi-drug resistant Enterococcus faecalis assessed as reduction in bacterial growth by broth dilution method; format: functional
Escherichia coli [4] = assay: Antimicrobial activity against Escherichia coli ATCC 25922 assessed as reduction in bacterial growth by broth dilution method; format: functional
Escherichia coli [5] = assay: Antimicrobial activity against multi-drug resistant Escherichia coli assessed as reduction in bacterial growth by broth dilution method; format: functional
Klebsiella pneumoniae = assay: Antimicrobial activity against multi-drug resistant Klebsiella pneumoniae assessed as reduction in bacterial growth by broth dilution method; format: functional
Acinetobacter baumannii = assay: Antimicrobial activity against multi-drug resistant Acinetobacter baumannii assessed as reduction in bacterial growth by broth dilution method; format: functional
[6] = Hemolytic activity in human Red blood cell assessed as hemolysis incubated for 1 hrs by microplate reader based analysis; format: toxicity; conditions: erythrocyte
Escherichia coli [7] = assay: Antimicrobial activity against multi-drug resistant Escherichia coli assessed as fold increase in MIC in presence of NaCl; format: functional
Escherichia coli [8] = assay: Antimicrobial activity against multi-drug resistant Escherichia coli assessed as fold increase in MIC in presence of KCl; format: functional
Escherichia coli [9] = assay: Antimicrobial activity against multi-drug resistant Escherichia coli assessed as fold increase in MIC in presence of FeCl3; format: functional
Staphylococcus aureus [10] = assay: Antimicrobial activity against multi-drug resistant Staphylococcus aureus assessed as reduction in bacterial growth measured after 1 to 6 hrs in 25% plasma; format: functional, organism-based; conditions: time 1-6 hrs
[11] = Half life of the compound in 25% plasma; format: ADME, cell-free
Escherichia coli [12] = assay: Antimicrobial activity against multi-drug resistant Escherichia coli assessed as reduction in bacterial growth at 2 times MIC measured after 1 hrs in presence of trypsin by microplate reader based analysis; format: functional, organism-based
Escherichia coli [13] = assay: Antimicrobial activity against multi-drug resistant Escherichia coli assessed as reduction in bacterial growth at 2 times MIC measured after 1 hrs in presence of chymotrypsin by microplate reader based analysis; format: functional, organism-based
Staphylococcus aureus [14] = assay: Antimicrobial activity against multi-drug resistant Staphylococcus aureus assessed as reduction in bacterial growth at 2 times MIC measured after 1 hrs in presence of trypsin by microplate reader based analysis; format: functional, organism-based
Staphylococcus aureus [15] = assay: Antimicrobial activity against multi-drug resistant Staphylococcus aureus assessed as reduction in bacterial growth at 2 times MIC measured after 1 hrs in presence of chymotrypsin by microplate reader based analysis; format: functional, organism-based
Staphylococcus aureus [16] = assay: Antibacterial activity against Staphylococcus aureus ATCC 25923 at sub-inhibitory concentration measured after 15 passages for 18 hrs; format: functional; design: scale not given: the % may be the effect or the level left
Staphylococcus aureus [17] = assay: Bactericidal activity against multi-drug resistant Staphylococcus aureus assessed as eradication of bacterial growth at 2 times MIC by time-kill kinetic assay; format: functional, organism-based; conditions: time 120-720 min
Escherichia coli [18] = assay: Bactericidal activity against multi-drug resistant Escherichia coli assessed as eradication of bacterial growth at 2 times MIC by time-kill kinetic assay; format: functional, organism-based; conditions: time 120-720 min
Staphylococcus aureus [19] = assay: Bactericidal activity against multi-drug resistant Staphylococcus aureus assessed as eradication of bacterial growth at 2 times MIC measured after 6 hrs by time-kill kinetic assay relative to control; format: functional
Escherichia coli [20] = assay: Bactericidal activity against multi-drug resistant Escherichia coli assessed as eradication of bacterial growth at 2 times MIC measured after 6 hrs by time-kill kinetic assay relative to control; format: functional
Cell membrane [21] = assay: Disruption of cell membrane in multi-drug resistant Staphylococcus aureus assessed as appearance of wrinkled cell surface at 2 times MIC measured for 120 mins by transmission electron microscopy analysis; format: subcellular
Cell membrane [22] = assay: Disruption of cell membrane in multi-drug resistant Staphylococcus aureus assessed as appearance of ruptured cell surface at 2 times MIC measured for 120 mins by transmission electron microscopy analysis; format: subcellular
Cell membrane [23] = assay: Disruption of cell membrane in multi-drug resistant Escherichia coli assessed as appearance of wrinkled cell surface at 2 times MIC measured for 120 mins by transmission electron microscopy analysis; format: subcellular
Cell membrane [24] = assay: Disruption of cell membrane in multi-drug resistant Escherichia coli assessed as appearance of ruptured cell surface at 2 times MIC measured for 120 mins by transmission electron microscopy analysis; format: subcellular
Cell membrane [25] = assay: Disruption of cell membrane in multi-drug resistant Staphylococcus aureus assessed as increase in red fluorescence intensity of PI at 2 times MIC measured for 2 hrs by fluorescence confocal microscopic imaging based analysis; format: subcellular
Cell membrane [26] = assay: Disruption of cell membrane in multi-drug resistant Escherichia coli assessed as increase in red fluorescence intensity of PI at 2 times MIC measured for 2 hrs by fluorescence confocal microscopic imaging based analysis; format: subcellular
Escherichia coli [27] = assay: Bactericidal activity against multi-drug resistant Escherichia coli at 1 times MIC preincubated with LPS for 1 hrs followed by bacterial addition and measured after 18 hrs by microplate reader based analysis; format: functional, organism-based; conditions: time 19.0 hrs
Cell membrane [28] = assay: Induction of outer membrane permeabilization in multi-drug resistant Escherichia coli assessed as NPN uptake at 1 to 4 times MIC measured within 1 min by fluorescence based analysis; format: subcellular
Cell membrane [29] = assay: Induction of cytoplasmic membrane depolarization in multi-drug resistant Escherichia coli at 1 to 4 times MIC measured within 1 min by DiSC3-5 fluorescent dye based analysis
Cell membrane [30] = assay: Induction of cytoplasmic membrane depolarization in multi-drug resistant Staphylococcus aureus at 1 to 4 times MIC measured within 1 min by DiSC3-5 fluorescent dye based analysis
Staphylococcus aureus [31] = assay: Antibiofilm activity against multi-drug resistant Staphylococcus aureus measured after 24 hrs by crystal violet staining based analysis; format: functional, organism-based
Escherichia coli [32] = assay: Antibiofilm activity against multi-drug resistant Escherichia coli measured after 24 hrs by crystal violet staining based analysis; format: functional, organism-based
Escherichia coli [33] = assay: Antibiofilm activity against multi-drug resistant Escherichia coli at 0.5 times MIC measured after 24 hrs by crystal violet staining based analysis; format: functional, organism-based
Staphylococcus aureus [34] = assay: Antibiofilm activity in methicillin-resistant Staphylococcus aureus assessed as eradication of formed biofilm by measuring reduction in viable bacterial count measured after 12 hrs by confocal microscopy based analysis; format: functional, organism-based
Escherichia coli [35] = assay: Antibiofilm activity in […] assessed as eradication of formed biofilm by measuring reduction in viable bacterial count measured after 12 hrs by confocal microscopy based analysis; format: functional, organism-based
Staphylococcus aureus [36] = assay: Antibiofilm activity in methicillin-resistant Staphylococcus aureus assessed as eradication of formed biofilm at 1 to 4 times MIC measured after 12 hrs by confocal microscopy based analysis; format: functional, organism-based
Escherichia coli [37] = assay: Antibiofilm activity in […] assessed as eradication of formed biofilm at 1 to 4 times MIC measured after 12 hrs by confocal microscopy based analysis; format: functional, organism-based

## CC(C)C[C@H](NC(=O)[C@H](Cc1ccccc1)NC(=O)[C@@H]1CCCN1C(=O)[C@H](Cc1c[nH]c2ccccc12)NC(=O)[C@H](Cc1c[nH]c2ccccc12)NC(=O)[C@H](Cc1c[nH]c2ccccc12)NC(=O)[C@@H]1CCCN1C(=O)[C@H](Cc1ccccc1)NC(=O)[C@H](CCCNC(=N)N)NC(=O)[C@H](CCCNC(=N)N)NC(=O)[C@@H](N)C(C)C)C(=O)N[C@@H](CCCNC(=N)N)C(=O)N[C@@H](CCCNC(=N)N)C(=O)O
Staphylococcus aureus [1]
  MIC: 8 µM (≈ 15.2 µg/mL)
Staphylococcus aureus [2]
  MIC: 16 µM (≈ 30.4 µg/mL)
[3]
  MIC: 4 µM (≈ 7.61 µg/mL)
Enterococcus faecalis
  MIC: 4 µM (≈ 7.61 µg/mL)
Escherichia coli [4]
  MIC: 16 µM (≈ 30.4 µg/mL)
Escherichia coli [5]
  MIC: 16 µM (≈ 30.4 µg/mL)
Klebsiella pneumoniae
  MIC: 256 µM (≈ 487 µg/mL)
Acinetobacter baumannii
  MIC: 32 µM (≈ 60.9 µg/mL)
[6]
  HC10: 33.13 µM
Escherichia coli [7]
  fold change (FC): 2
Escherichia coli [8]
  fold change (FC): 2
Escherichia coli [9]
  fold change (FC): 2
Staphylococcus aureus [10]
  Activity: inactive
[11]
  half-life: 1.7 h
Escherichia coli [12]
  Activity: inactive
Escherichia coli [13]
  Activity: inactive
Staphylococcus aureus [14]
  Activity: inactive
Staphylococcus aureus [15]
  Activity: inactive
Staphylococcus aureus [16]
  Activity: 100%
Staphylococcus aureus [17]
  Activity: Time-dependent-effect
Escherichia coli [18]
  Activity: Time-dependent-effect
Staphylococcus aureus [19]
  Activity: 100%
Escherichia coli [20]
  Activity: 100%
Cell membrane [21]
  Activity: Active
Cell membrane [22]
  Activity: Active
Cell membrane [23]
  Activity: Active
Cell membrane [24]
  Activity: Active
Cell membrane [25]
  Activity: Active
Cell membrane [26]
  Activity: Active
Escherichia coli [27]
  Activity: inactive
Cell membrane [28]
  Activity: Active
Cell membrane [29]
  Activity: Active
Cell membrane [30]
  Activity: Active
Staphylococcus aureus [31]
  Activity: Dose-dependent-effect
Escherichia coli [32]
  Activity: Dose-dependent-effect
Escherichia coli [33]
  Activity: inactive
Staphylococcus aureus [34]
  Activity: Dose-dependent-effect
Escherichia coli [35]
  Activity: Dose-dependent-effect
Staphylococcus aureus [36]
  Activity: Active
Escherichia coli [37]
  Activity: Active
